Source: patent US11504410B2, “Neuroprotection and neuroregeneration by pterostilbene and compositions thereof” (THERAPEUTIC SOLUTIONS INTERNATIONAL, INC., priority 2020, dated 2022)

Experiments:
[1] = Relative bioavailability of pterostilbene; format: in vivo; settings: compared with creatine monohydrate
Text: Without being bound by any particular theory, due to its improved solubility, pterostilbene is also expected to have better oral absorption properties compared to various other neuroprotectants. As used herein, “bioavailability” refers to the rate and amount of a drug or supplement that reaches the systemic circulation of a patient following administration of the drug or supplement. […] The terms “treatment,” “treating,” and “treat, are used herein to refer generally to obtaining a desired pharmacological and/or physiological effect. The effect may be prophylactic in terms of completely or partially preventing a disease or symptom thereof and/or may be therapeutic in terms of a partial or complete stabilization or cure for a disease and/or adverse effect attributable to the disease. “Treatment” as used herein covers any treatment of a disease in a subject, and includes: (a) preventing the disease or symptom from occurring in a subject which may be predisposed to the disease or symptom, but has not yet been diagnosed as having it; (b) inhibiting the disease symptom, i.e., arresting its development; or (c) relieving the disease symptom, i.e., causing regression of the disease or symptom.

[2] = test system: classical complement activation pathway; settings: 15 U intravenously, cited from earlier work
[3] = test system: classical complement activation pathway; settings: cited from earlier work

| relative bioavailability greater than creatine monohydrate [1] | Compound | improvement of focal neurologic deficits ([2]; 48 hours after ischemia) [%] | improvement of general neurologic deficits ([2]; 48 hours after ischemia) [%] | infarct volume of total brain ([2]; 48 hours after ischemia) [%+/−2.93%] | neutral red staining in cortex, hippocampus, and striatum [2] | mean arterial blood pressure (MABP) and arterial blood gases ([3]; rat, in vivo) | regional cerebral blood flow (rCBF) ([3]; rats, after occlusion, versus vehicle) | reduction of infarct volume ([3]; rats, infusion over 30 min after occlusion, evaluated after 5 days survival) [%] |
| --- | --- | --- | --- | --- | --- | --- | --- | --- |
| at least 50% | COc1cc(/C=C/c2ccc(O)cc2)cc(OC)c1 [pterostilbene] | – | – | – | – | – | – | – |
| – | C1-INH: C1-esterase inhibitor, inhibits the classical complement activation pathway | 54 | 36 | 6.69 | strong protective effect | unaffected by the treatment | No difference was noted between experimental groups | 72 |
